Measured values taken from patent publication US10538555B2, “Macrocyclic inhibitors of the PD-1/PD-L1 and CD80(B7-1)/PD-L1 protein/protein interactions” (BRISTOL-MYERS SQUIBB COMPANY, priority 2014, dated 2020).
Where a SMILES comes first, the peptide text is derived from it. Bridges are numbered along the chain shown (N, C = ends). [ ]: non-standard residue; d: D form. Hyp = O=C(O)[C@@H]1C[C@@H](O)CN1; NMeNle = CCCC[C@H](NC)C(=O)O; Pip = O=C(O)[C@@H]1CCCCN1; Dab = NCC[C@H](N)C(=O)O; Dap = NC[C@H](N)C(=O)O

Target: T1, Human PD-L1/PD-1 (Homo sapiens, UniProt Q9NZQ7)
T1 construct: TVMV protease cleavage site (C); made in house; host or cells: HEK293T cells
T1 sequence (Q9NZQ7 with tags, fused parts or gaps): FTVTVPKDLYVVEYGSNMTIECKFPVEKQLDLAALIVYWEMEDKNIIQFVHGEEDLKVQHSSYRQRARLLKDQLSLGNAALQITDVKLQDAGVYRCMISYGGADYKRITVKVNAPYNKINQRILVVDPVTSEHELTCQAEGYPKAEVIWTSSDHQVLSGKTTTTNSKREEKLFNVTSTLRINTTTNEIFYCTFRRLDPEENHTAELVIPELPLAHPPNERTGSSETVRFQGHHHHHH
Experiment: HTRF Human PD-L1/PD-1 binding assay (PD-1-Ig/PD-L1-His)
Conditions: PD-L1-His 10 nM, PD-1-Ig 20 nM; class symbol; read-out: HTRF Human PD-L1/PD-1 Binding Assay IC50 Range
Source text: Methods for Testing the Ability of Macrocyclic Peptides to Compete for the Binding of PD-1 to PD-L1 Using Homogenous Time-Resolved Fluorescence (HTRF) Binding Assays
The ability of the macrocyclic peptides of the present disclosure to bind to PD-L1 was investigated using a PD-1/PD-L1 Homogenous Time-Resolved Fluorescence (HTRF) binding assay.
Homogenous Time-Resolved Fluorescence (HTRF) Assays of Binding of Soluble PD-1 to Soluble PD-L1. Soluble PD-1 and soluble PD-L1 refers to proteins with carboxyl-end truncations that remove the transmembrane-spanning regions and are fused to heterologous sequences, specifically the Fc portion of the human immunoglobuling G sequence (Ig) or the hexahistidine epitope tag (His). All binding studies were performed in an HTRF assay buffer consisting of dPBS supplemented with 0.1% (w/v) bovine serum albumin and 0.05% (v/v) Tween-20. For the PD-1-Ig/PD-L1-His binding assay, inhibitors were pre-incubated with PD-L1-His (10 nM final) for 15 m in 4 μl of assay buffer, followed by addition of PD-1-Ig (20 nM final) in 1 μl of assay buffer and further incubation for 15 m. PD-L1 fusion proteins from either human, cynomolgus macaques, or mouse were used. HTRF detection was achieved using europium crypate-labeled anti-Ig monoclonal antibody (1 nM final) and allophycocyanin (APC) labeled anti-His monoclonal antibody (20 nM final). Antibodies were diluted in HTRF detection buffer and 5 μl was dispensed on top of binding reaction. The reaction was allowed to equilibrate for 30 minutes and signal (665 nm/620 nm ratio) was obtained using an EnVision fluorometer. Additional binding assays were established between PD-1-Ig/PD-L2-His (20 and 5 nM, respectively), CD80-His/PD-L1-Ig (100 and 10 nM, respectively) and CD80-His/CTLA4-Ig (10 and 5 nM, respectively). Competition studies between biotinylated Compound No. 71 and human PD-L1-His were performed as follows. Macrocyclic peptide inhibitors were pre-incubated with PD-L1-His (10 nM final) for 60 minutes in 4 μl of assay buffer followed by addition of biotinylated Compound No. 71 (0.5 nM final) in 1 μl of assay buffer. Binding was allowed to equilibrate for 30 minutes followed by addition of europium crypated labeled Streptavidin (2.5 pM final) and APC-labeled anti-His (20 nM final) in 5 μl of HTRF buffer. The reaction was allowed to equilibrate for 30 m and signal (665 nm/620 nm ratio) was obtained using an EnVision fluorometer.
Recombinant Proteins. Carboxyl-truncated human PD-1 (amino acids 25-167) with a C-terminal human Ig epitope tag [hPD-1 (25-167)-3S-IG] and human PD-L1 (amino acids 18-239) with a C-terminal His epitope tag [hPD-L1([…])-tobacco vein mottling virus protease cleavage site (TVMV)-His] were expressed in HEK293T cells and purified sequentially by rProteinA affinity chromatography and size exclusion chromatography.

| IC50 [nM] | Compound |
| --- | --- |
| 1 to 9.9 | CCCC[C@H]1C(=O)N(C)[C@@H](CCCC)C(=O)N[C@@H](CCC(=O)O)C(=O)N[C@H](C(=O)NCC(N)=O)CSCC(=O)N[C@@H](Cc2ccc(O)cc2)C(=O)N2CCCC[C@H]2C(=O)N[C@@H](CC(N)=O)C(=O)N2CCC[C@H]2C(=O)N[C@@H](Cc2cnc[nH]2)C(=O)N[C@@H](CCC(N)=O)C(=O)N2C[C@H](O)C[C@H]2C(=O)N[C@@H](Cc2c[nH]c3ccccc23)C(=O)N[C@@H](CO)C(=O)N[C@@H](Cc2c[nH]c3ccccc23)C(=O)N1C [Example 1250] ({CH2CO}-Y[Pip]NPHQ[Hyp]WSW[NMeNle][NMeNle]ECG-NH2; thioether N-14) |
| 1 to 9.9 | CCCC[C@H]1C(=O)N(C)[C@@H](CCCC)C(=O)N[C@@H](C)C(=O)N[C@H](C(=O)NCC(N)=O)CSCC(=O)NC(Cc2ccc(O)cc2)C(=O)N2CCCC[C@H]2C(=O)N[C@@H](CC(N)=O)C(=O)N2CCC[C@H]2C(=O)N[C@@H](Cc2c[nH]cn2)C(=O)N[C@@H](CC(C)C)C(=O)N2C[C@H](O)C[C@H]2C(=O)N[C@@H](Cc2c[nH]c3ccccc23)C(=O)N[C@@H](CO)C(=O)N[C@@H](Cc2c[nH]c3ccccc23)C(=O)N1C (stereo partly shown) [Example 1251] |
| 1 to 9.9 | CCCC[C@H]1C(=O)N(C)[C@@H](CCCC)C(=O)N[C@@H](CCC(=O)O)C(=O)N[C@H](C(=O)NCC(N)=O)CSCC(=O)N[C@@H](Cc2ccc(O)cc2)C(=O)N2CCCC[C@H]2C(=O)N[C@@H](CC(N)=O)C(=O)N2CCC[C@H]2C(=O)N[C@@H](Cc2cnc[nH]2)C(=O)N[C@@H](CCC(=O)O)C(=O)N2C[C@H](O)C[C@H]2C(=O)N[C@@H](Cc2c[nH]c3ccccc23)C(=O)N[C@@H](CO)C(=O)N[C@@H](Cc2c[nH]c3ccccc23)C(=O)N1C [Example 1252] ({CH2CO}-Y[Pip]NPHE[Hyp]WSW[NMeNle][NMeNle]ECG-NH2; thioether N-14) |
| 1 to 9.9 | CCCC[C@H]1C(=O)N(C)[C@@H](CCCC)C(=O)N[C@@H](CCC(=O)O)C(=O)N[C@H](C(=O)NCC(N)=O)CSCC(=O)N[C@@H](Cc2ccc(O)cc2)C(=O)N2CCCC[C@H]2C(=O)N[C@@H](CC(=O)O)C(=O)N2CCC[C@H]2C(=O)N[C@@H](Cc2cnc[nH]2)C(=O)N[C@@H](CCC(=O)O)C(=O)N2C[C@H](O)C[C@H]2C(=O)N[C@@H](Cc2c[nH]c3ccccc23)C(=O)N[C@@H](CO)C(=O)N[C@@H](Cc2c[nH]c3ccccc23)C(=O)N1C [Example 1256] ({CH2CO}-Y[Pip]DPHE[Hyp]WSW[NMeNle][NMeNle]ECG-NH2; thioether N-14) |
| 1 to 9.9 | CCCC[C@H]1C(=O)N(C)[C@@H](CCCC)C(=O)N[C@@H](C)C(=O)N[C@H](C(=O)NCC(N)=O)CSCC(=O)N[C@@H](Cc2ccc(O)cc2)C(=O)N2CCCC[C@H]2C(=O)N[C@@H](CC(=O)O)C(=O)N2CCC[C@H]2C(=O)N[C@@H](CN)C(=O)N[C@@H](CCC(N)=O)C(=O)N2C[C@H](O)C[C@H]2C(=O)N[C@@H](Cc2c[nH]c3ccccc23)C(=O)N[C@@H](CO)C(=O)N[C@@H](Cc2c[nH]c3ccccc23)C(=O)N1C [Example 1257] ({CH2CO}-Y[Pip]DP[Dap]Q[Hyp]WSW[NMeNle][NMeNle]ACG-NH2; thioether N-14) |
| 1 to 9.9 | CCCC[C@H]1C(=O)N(C)[C@@H](CCCC)C(=O)N[C@@H](C)C(=O)N[C@H](C(=O)NCC(N)=O)CSCC(=O)N[C@@H](Cc2ccc(O)cc2)C(=O)N2CCCC[C@H]2C(=O)N[C@@H](CC(=O)O)C(=O)N2CCC[C@H]2C(=O)N[C@@H](CN)C(=O)N[C@@H](CCC(=O)O)C(=O)N2C[C@H](O)C[C@H]2C(=O)N[C@@H](Cc2c[nH]c3ccccc23)C(=O)N[C@@H](CO)C(=O)N[C@@H](Cc2c[nH]c3ccccc23)C(=O)N1C [Example 1258] ({CH2CO}-Y[Pip]DP[Dap]E[Hyp]WSW[NMeNle][NMeNle]ACG-NH2; thioether N-14) |
| 1 to 9.9 | CCCC[C@H]1C(=O)N(C)[C@@H](CCCC)C(=O)N[C@@H](CC(=O)O)C(=O)N[C@H](C(=O)NCC(N)=O)CSCC(=O)N[C@@H](Cc2ccc(O)cc2)C(=O)N2CCCC[C@H]2C(=O)N[C@@H](CC(=O)O)C(=O)N2CCC[C@H]2C(=O)N[C@@H](Cc2cnc[nH]2)C(=O)N[C@@H](CCCCN)C(=O)N2C[C@H](O)C[C@H]2C(=O)N[C@@H](Cc2c[nH]c3ccccc23)C(=O)N[C@@H](CCCCN)C(=O)N[C@@H](Cc2c[nH]c3ccccc23)C(=O)N1C [Example 1259] ({CH2CO}-Y[Pip]DPHK[Hyp]WKW[NMeNle][NMeNle]DCG-NH2; thioether N-14) |
| 1 to 9.9 | CCCC[C@H]1C(=O)N(C)[C@@H](CCCC)C(=O)N[C@@H](CCC(=O)O)C(=O)N[C@H](C(=O)NCC(N)=O)CSCC(=O)N[C@@H](Cc2ccc(O)cc2)C(=O)N2CCCC[C@H]2C(=O)N[C@@H](CC(=O)O)C(=O)N2CCC[C@H]2C(=O)N[C@@H](Cc2cnc[nH]2)C(=O)N[C@@H](CCC(N)=O)C(=O)N2C[C@H](O)C[C@H]2C(=O)N[C@@H](Cc2c[nH]c3ccccc23)C(=O)N[C@@H](CO)C(=O)N[C@@H](Cc2c[nH]c3ccccc23)C(=O)N1C [Example 1260] ({CH2CO}-Y[Pip]DPHQ[Hyp]WSW[NMeNle][NMeNle]ECG-NH2; thioether N-14) |
| 1 to 9.9 | CCCC[C@H]1C(=O)N(C)[C@@H](CCCC)C(=O)N[C@@H](C)C(=O)N[C@H](C(=O)NCC(N)=O)CSCC(=O)N[C@@H](Cc2ccc(O)cc2)C(=O)N2CCCC[C@H]2C(=O)N[C@@H](CC(=O)O)C(=O)N2CCC[C@H]2C(=O)N[C@@H](Cc2cnc[nH]2)C(=O)N[C@@H](CCC(N)=O)C(=O)N2C[C@H](O)C[C@H]2C(=O)N[C@@H](Cc2c[nH]c3ccccc23)C(=O)N[C@@H](CO)C(=O)N[C@@H](Cc2c[nH]c3ccccc23)C(=O)N1C [Example 1261] ({CH2CO}-Y[Pip]DPHQ[Hyp]WSW[NMeNle][NMeNle]ACG-NH2; thioether N-14) |
| 1 to 9.9 | CCCC[C@H]1C(=O)N(C)[C@@H](CCCC)C(=O)N[C@@H](CCC(=O)O)C(=O)N[C@H](C(=O)NCC(N)=O)CSCC(=O)N[C@@H](Cc2ccc(O)cc2)C(=O)N2CCCC[C@H]2C(=O)N[C@@H](CC(=O)O)C(=O)N2CCC[C@H]2C(=O)N[C@@H](CN)C(=O)N[C@@H](CCC(=O)O)C(=O)N2C[C@H](O)C[C@H]2C(=O)N[C@@H](Cc2c[nH]c3ccccc23)C(=O)N[C@@H](CCN)C(=O)N[C@@H](Cc2c[nH]c3ccccc23)C(=O)N1C [Example 1262] ({CH2CO}-Y[Pip]DP[Dap]E[Hyp]W[Dab]W[NMeNle][NMeNle]ECG-NH2; thioether N-14) |
| 1 to 9.9 | CCCC[C@H]1C(=O)N(C)[C@@H](CCCC)C(=O)N[C@@H](CC(C)C)C(=O)N[C@H](C(=O)NCC(N)=O)CSCC(=O)N[C@@H](Cc2ccc(O)cc2)C(=O)N2CCCC[C@H]2C(=O)N[C@@H](CC(=O)O)C(=O)N2CCC[C@H]2C(=O)N[C@@H](CN)C(=O)N[C@@H](CCC(=O)O)C(=O)N2C[C@H](O)C[C@H]2C(=O)N[C@@H](Cc2c[nH]c3ccccc23)C(=O)N[C@@H](CO)C(=O)N[C@@H](Cc2c[nH]c3ccccc23)C(=O)N1C [Example 1272] ({CH2CO}-Y[Pip]DP[Dap]E[Hyp]WSW[NMeNle][NMeNle]LCG-NH2; thioether N-14) |
| 1 to 9.9 | CCCC[C@H]1C(=O)N(C)[C@@H](CCCC)C(=O)N[C@@H](CC(C)C)C(=O)N[C@H](C(=O)NCC(N)=O)CSCC(=O)N[C@@H](Cc2ccc(O)cc2)C(=O)N2CCCC[C@H]2C(=O)N[C@@H](CC(N)=O)C(=O)N2CCC[C@H]2C(=O)N[C@@H](Cc2cnc[nH]2)C(=O)N[C@@H](CCC(N)=O)C(=O)N2C[C@H](O)C[C@H]2C(=O)N[C@@H](Cc2c[nH]c3ccccc23)C(=O)N[C@@H](CO)C(=O)N[C@@H](Cc2c[nH]c3ccccc23)C(=O)N1C [Example 1273] ({CH2CO}-Y[Pip]NPHQ[Hyp]WSW[NMeNle][NMeNle]LCG-NH2; thioether N-14) |

Same assay, conditions: PD-L1-His 10 nM, PD-1-Ig 20 nM; read-out: HTRF Human PD-L1/PD-1 Binding Assay IC50

| IC50 [nM] | Compound |
| --- | --- |
| 2.6 | CCCC[C@H]1C(=O)N(C)[C@@H](CCCC)C(=O)N[C@@H](C)C(=O)N[C@H](C(=O)NCC(N)=O)CSCC(=O)N[C@@H](Cc2ccc(O)cc2)C(=O)N2CCCC[C@H]2C(=O)N[C@@H](CC(N)=O)C(=O)N2CCC[C@H]2C(=O)N[C@@H](Cc2cnc[nH]2)C(=O)N[C@@H](CCC(N)=O)C(=O)N2C[C@H](O)C[C@H]2C(=O)N[C@@H](Cc2c[nH]c3ccccc23)C(=O)N[C@@H](CO)C(=O)N[C@@H](Cc2c[nH]c3ccccc23)C(=O)N1C [Example 1255] |
